Test results published in patent publication US10548898B2, “Quinazoline compounds” (Gilead Sciences, Inc., priority 2014, dated 2020).
Like-named read-outs stand apart in the source and are kept apart here.

Legend:
Type in all cases: cell-based
[1] = tested on: HIV-1 reverse transcriptase mutant K103N; assay: High throughput cytopathic effect assay in MT-4 cells, K103N mutant; details: for EC50: Human immunodeficiency virus 1, MT4, 120 h, read-out: MT4 EC50 (nM) against K103N; for FC against mutant K103N: fold change of MT4 EC50 versus w.t. assay 2
Excerpt: (§1) Compounds were screened in a miniaturized, high throughput cytopathic effect assay for activity against HIV-1 HBX2 (wild type) and HIV-1 reverse transcriptase mutants K103N and Y181C. In Tables 1 and 2 below. “w.t.” refers to results of the tested compounds run with the wildtype 1 and “w.t, assay 2” refers results of the tested compounds run with the wildtype on the same day as the testing of the compounds with the mutants. Thus, “w.t, assay 2” was run under the same conditions as the testing of the compounds with the mutants and provides a direct comparison with the results from the testing with the mutants.
(§2) Ten-point serial dilutions of compounds with half-log step size were generated in DMSO. AZT ([…]) was used as the positive control and DMSO as the negative control. The Echo acoustic dispenser was used to deliver 200 nL of serially diluted compound into sterile 384 well tissue culture assay plates. Two million MT-4 cells were incubated with each of the 3 viruses at MOI of 0.0005 in separate 1 mL infection tubes for 1 hour at 37° C. The cells were diluted in cell culture medium (RPMI+10% FBS) to 50.000 cells/mL. The infected cells were added to 384 well assay plates containing serially dilute compounds. Assay plates were incubated for 5 days in a humidified incubator set at 37° C. and 5% CO2. To measure the cytopathic effect of HIV, 40 μL Cell TiterGlo was added to each well and the resulting luminescence signal is read with the Envision plate reader (Perkin Elmer). Data were normalized to positive and negative controls in each plate and expressed as % CPE Protection. EC50 values were defined as the compound concentration that caused a 50% decrease in luminescence signal, and were calculated by non-linear regression using Pipeline Pilot software by applying a four parameter fit equation (Accelrys, San Diego, Calif.).

HIV-1 HBX2 (wild type) = assay: High throughput cytopathic effect assay in MT-4 cells, wild type HIV-1
Excerpt: as §1, §2

[2] = tested on: HIV-1 reverse transcriptase mutant Y181C; assay: High throughput cytopathic effect assay in MT-4 cells, Y181C mutant; details: for EC50: Human immunodeficiency virus 1, MT4, 120 h, read-out: MT4 EC50 (nM) against Y181C; for FC against mutant Y181C: fold change of MT4 EC50 versus w.t. assay 2
Excerpt: as §1, §2

[3] = tested on: HIV-1 recombinant strain encoding reverse transcriptase mutation K103N/Y181C; assay: Resistance profile against HIV-1 RT mutants in MT-2 cells, K103N/Y181C; details: ratio of mean EC50 mutant/WT virus
Protocol: (§3) Compounds were tested for antiviral activity against a panel of NNRTI resistant viruses. A panel of 8 clonal site-directed mutant viruses representing the major resistance development pathways against rilpivirine (“RPV”), efavirenz (“EFV”), and nevirapine (“NVP”), containing both single and double mutations within HIV-1 reverse transcriptase was employed. Further details and background can be found in Janssen et al. J. Med. Chem, 2005, 48, 1901-1909; Das et al., Proc. Nat. Acad. Sci., 2008, vol., 105, no. 5, 1466-1471; and Kuroda et al., Nature Chemistry, 2013, DOI: 10.1038/NCHEM. 1559. […] HIV-1 recombinant strains encoding reverse transcriptase mutations K103N, Y181C, Y188L, G190A, K103N/Y181C, L1001/Y181C, E138K or E138KIM 184V were constructed by site-directed mutagenesis. Wild-type and mutant viruses were prepared by transfecting infectious proviral HXB2-based cDNA clones into MT-2 cells and harvesting the cell supernatants. MT-2 cells were infected with wild-type and mutant HIV-1 strains at a multiplicity of infection (MOI) of 0.005 by gentle mixing for 3 hours at 37° C. and then added at a density of 16,667 cells per well in 50 μL complete RPMI cell culture media (containing 10% fetal bovine serum (FBS) and 10% penicillin-streptomycin) to 96-well plates containing 50 μL of a 3-fold serial dilution of test compounds in RPMI medium. After 5 days of incubation at 37° C. in a humidified incubator in the presence of 5% CO2. 100 μL of Cell Titer-Glo™ Reagent (Promega Biosciences, Inc., Madison, Wis.) was added to each well and the relative light units (RLU) measured on an Envision plate reader. […] The EC50 value was defined as the compound concentration inducing a 50% decrease in virus replication. Data analysis for the antiviral activity observed in MT-2 cells was performed using XL-Fit™ software (IDBS, Guildford, Surrey, UK) to calculate EC50 from an 8-point dose-response curve using the following equation:
(§4) [formula] where y=virus inhibition, x=drug concentration, M=maximum inhibition, H=minimum inhibition and n=Hill coefficient, EC50 values (mean±standard deviation) were calculated from at least three independent experiments performed in triplicate. The level of resistance was calculated as a ratio of the mean EC50 for each mutant/WT virus. Results are disclosed in FIG. 1 and in Tables 3 and 4 below.

[4] = tested on: HIV-1 recombinant strain encoding reverse transcriptase mutation Y181C; assay: Resistance profile against HIV-1 RT mutants in MT-2 cells, Y181C; details: ratio of mean EC50 mutant/WT virus
Protocol: as §3, §4

[5] = tested on: HIV-1 recombinant strain encoding reverse transcriptase mutation K103N; assay: Resistance profile against HIV-1 RT mutants in MT-2 cells, K103N; details: ratio of mean EC50 mutant/WT virus
Protocol: as §3, §4

[6] = tested on: HIV-1 recombinant strain encoding reverse transcriptase mutation L100I/Y181C; assay: Resistance profile against HIV-1 RT mutants in MT-2 cells, L100I/Y181C; details: ratio of mean EC50 mutant/WT virus
Protocol: as §3, §4

[7] = tested on: HIV-1 recombinant strain encoding reverse transcriptase mutation Y188L; assay: Resistance profile against HIV-1 RT mutants in MT-2 cells, Y188L; details: ratio of mean EC50 mutant/WT virus
Protocol: as §3, §4

[8] = Human immunodeficiency virus 1, MT4, 120 h, MT-4 cells, 5 days, cytopathic effect, Cell TiterGlo, read-out: MT4 EC50 (nM) against w.t.
[9] = Human immunodeficiency virus 1, MT4, read-out: MT4 EC50 (nM) against w.t. assay 2

Cc1cc(/C=C/C#N)cc(C)c1-c1cccc2c(NCC3CC3)nc(Nc3ccc(C#N)cc3)nc12 [Compound 6, (E)-4-((8-(4-(2-Cyanovinyl)-2,6-dimethylphenyl)-4-((cyclopropylmethyl)amino)quinazolin-2-yl)amino)benzonitrile]
EC50 [1]: 81.1 nM
FC against mutant K103N [1]: 1.0
EC50 (HIV-1 HBX2 (wild type); [8]): 99.3 nM
EC50 (HIV-1 HBX2 (wild type); [9]): 82.6 nM
EC50 [2]: 470 nM
FC against mutant Y181C [2]: 5.7

Cc1cc(/C=C/C#N)cc(C)c1-c1cc(F)cc2cnc(Nc3ccc(C#N)cc3)nc12 [Compound 4, (E)-4-((8-(4-(2-Cyanovinyl)-2,6-dimethylphenyl)-6-fluoroquinazolin-2-yl)amino)benzonitrile]
Biology resistance panel-low throughput fold change (FC) K103N/Y181C [3]: 12.8
Biology resistance panel-low throughput fold change (FC) Y181C [4]: 4.9
EC50 [1]: 19.1 nM
FC against mutant K103N [1]: 2.0
EC50 (HIV-1 HBX2 (wild type); [8]): 9.2 nM
EC50 (HIV-1 HBX2 (wild type); [9]): 9.8 nM
Biology resistance panel-low throughput fold change (FC) K103N [5]: 1.4
EC50 [2]: 47 nM
FC against mutant Y181C [2]: 4.8
Biology resistance panel-low throughput fold change (FC) L100I/Y181C [6]: 5.4
Biology resistance panel-low throughput fold change (FC) Y188L [7]: 16.9

N#C/C=C/c1cc(F)c(-c2cccc3c(N)nc(Nc4ccc(C#N)cc4)nc23)c(F)c1 [Compound 8, (E)-4-((4-Amino-8-(4-(2-cyanovinyl)-2,6-difluorophenyl)quinazolin-2-yl)amino)benzonitrile]
EC50 [1]: 3.7 nM
FC against mutant K103N [1]: 1.3
EC50 (HIV-1 HBX2 (wild type); [8]): 2.7 nM
EC50 (HIV-1 HBX2 (wild type); [9]): 2.8 nM
EC50 [2]: 21.7 nM
FC against mutant Y181C [2]: 7.8

Cc1cc(Nc2nc(N)c3cccc(-c4c(C)cc(/C=C/C#N)cc4C)c3n2)ncc1C#N [Compound 18, (E)-6-((4-Amino-8-(4-(2-cyanovinyl)-2,6-dimethylphenyl)quinazolin-2-yl)amino)-4-methylnicotinonitrile]
EC50 [1]: 12.1 nM
FC against mutant K103N [1]: 0.9
EC50 (HIV-1 HBX2 (wild type); [8]): 21.9 nM
EC50 (HIV-1 HBX2 (wild type); [9]): 13.1 nM
EC50 [2]: 112 nM
FC against mutant Y181C [2]: 8.6

Cc1cc(/C=C/C#N)cc(C)c1-c1cc(F)cc2c(N)nc(Nc3ccc(C#N)nn3)nc12 [Compound 27, (E)-6-((4-Amino-8-(4-(2-cyanovinyl)-2,6-dimethylphenyl)-6-fluoroquinazolin-2-yl)amino)pyridazine-3-carbonitrile]
EC50 [1]: 5.3 nM
FC against mutant K103N [1]: 1.4
EC50 (HIV-1 HBX2 (wild type); [8]): 6.3 nM
EC50 (HIV-1 HBX2 (wild type); [9]): 3.8 nM
EC50 [2]: 400 nM
FC against mutant Y181C [2]: 105.9

Cc1cc(/C=C/C#N)cc(C)c1-c1cc(F)cc2cnc(Nc3ccc(C#N)cn3)nc12 [Compound 14, (E)-6-((8-(4-(2-Cyanovinyl)-2,6-dimethylphenyl)-6-fluoroquinazolin-2-yl)amino)nicotinonitrile]
EC50 [1]: 15.1 nM
FC against mutant K103N [1]: 1.2
EC50 (HIV-1 HBX2 (wild type); [8]): 8.1 nM
EC50 (HIV-1 HBX2 (wild type); [9]): 12.7 nM
EC50 [2]: 122 nM
FC against mutant Y181C [2]: 9.6

COc1cc(/C=C/C#N)cc(OC)c1-c1cccc2c(N)nc(Nc3ccc(C#N)cc3)nc12 [Compound 32, (E)-4-((4-Amino-8-(4-(2-cyanovinyl)-2,6-dimethoxyphenyl)quinazolin-2-yl)amino)benzonitrile]
EC50 [1]: 11.5 nM
FC against mutant K103N [1]: 1.2
EC50 (HIV-1 HBX2 (wild type); [8]): 1.9 nM
EC50 (HIV-1 HBX2 (wild type); [9]): 1.3 nM
EC50 [2]: 10.5 nM
FC against mutant Y181C [2]: 8.3

COc1cc(Nc2nc(N)c3cccc(-c4c(C)cc(/C=C/C#N)cc4C)c3n2)ccc1C#N [Compound 3, (E)-4-((4-Amino-8-(4-(2-cyanovinyl)-2,6-dimethylphenyl)quinazolin-2-yl)amino)-2-methoxybenzonitrile]
Biology resistance panel-low throughput fold change (FC) K103N/Y181C [3]: 3.4
Biology resistance panel-low throughput fold change (FC) Y181C [4]: 3.4
EC50 [1]: 12 nM
FC against mutant K103N [1]: 0.9
EC50 (HIV-1 HBX2 (wild type); [9]): 12.9 nM
Biology resistance panel-low throughput fold change (FC) K103N [5]: 1.0
EC50 [2]: 50.2 nM
FC against mutant Y181C [2]: 3.9
Biology resistance panel-low throughput fold change (FC) L100I/Y181C [6]: 1.0
Biology resistance panel-low throughput fold change (FC) Y188L [7]: 13.7

CNc1nc(Nc2ccc(C#N)cn2)nc2c(-c3c(C)cc(/C=C/C#N)cc3C)cccc12 [Compound 31, (E)-6-((8-(4-(2-Cyanovinyl)-2,6-dimethylphenyl)-4-(methylamino)quinazolin-2-yl)amino)nicotinonitrile]
EC50 [1]: 17.6 nM
FC against mutant K103N [1]: 2.1
EC50 (HIV-1 HBX2 (wild type); [8]): 10.5 nM
EC50 (HIV-1 HBX2 (wild type); [9]): 8.6 nM
EC50 [2]: 432 nM
FC against mutant Y181C [2]: 50.5

Cc1cc(C#N)cnc1Nc1nc(N)c2cccc(-c3c(C)cc(/C=C/C#N)cc3C)c2n1 [Compound 17, (E)-6-((4-Amino-8-(4-(2-cyanovinyl)-2,6-dimethylphenyl)quinazolin-2-yl)amino)-5-methylnicotinonitrile]
EC50 [1]: 151 nM
FC against mutant K103N [1]: 0.8
EC50 (HIV-1 HBX2 (wild type); [8]): 229 nM
EC50 (HIV-1 HBX2 (wild type); [9]): 190 nM
EC50 [2]: > 500 nM
FC against mutant Y181C [2]: >2.6

CCc1cc(/C=C/C#N)cc(CC)c1-c1cccc2c(N)nc(Nc3ccc(C#N)cc3)nc12 [Compound 35, (E)-4-((4-Amino-8-(4-(2-cyanovinyl)-2,6-diethylphenyl)quinazolin-2-yl)amino)benzonitrile]
EC50 [1]: 16.9 nM
FC against mutant K103N [1]: 1.0
EC50 (HIV-1 HBX2 (wild type); [8]): 12.8 nM
EC50 (HIV-1 HBX2 (wild type); [9]): 16.8 nM
EC50 [2]: 38.6 nM
FC against mutant Y181C [2]: 2.3

N#C/C=C/c1cc(F)c(-c2cccc3cnc(Nc4ccc(C#N)cc4)nc23)c(F)c1 [Compound 5, (E)-4-((8-(4-(2-Cyanovinyl)-2,6-difluorophenyl)quinazolin-2-yl)amino)benzonitrile]
Biology resistance panel-low throughput fold change (FC) K103N/Y181C [3]: 208.0
Biology resistance panel-low throughput fold change (FC) Y181C [4]: 15.4
EC50 [1]: 2.5 nM
FC against mutant K103N [1]: 1.7
EC50 (HIV-1 HBX2 (wild type); [8]): 1.3 nM
EC50 (HIV-1 HBX2 (wild type); [9]): 1.5 nM
Biology resistance panel-low throughput fold change (FC) K103N [5]: 1.6
EC50 [2]: 12 nM
FC against mutant Y181C [2]: 8.2
Biology resistance panel-low throughput fold change (FC) L100I/Y181C [6]: 18.9
Biology resistance panel-low throughput fold change (FC) Y188L [7]: 174.0

COc1ccc(-c2c(C)cc(/C=C/C#N)cc2C)c2nc(Nc3ccc(C#N)cc3)nc(N)c12 [Compound 28, (E)-4-((4-Amino-8-(4-(2-cyanovinyl)-2,6-dimethylphenyl)-5-methoxyquinazolin-2-yl)amino)benzonitrile]
EC50 [1]: 14.3 nM
FC against mutant K103N [1]: 1.6
EC50 (HIV-1 HBX2 (wild type); [8]): 11.4 nM
EC50 (HIV-1 HBX2 (wild type); [9]): 9.1 nM
EC50 [2]: 57.2 nM
FC against mutant Y181C [2]: 6.3
